This note sets out measurements from PubChem BioAssay (NCI).

Test systems include LOX IMVI melanoma; SF-539 CNS; KM12 colon; SNB-75 CNS; MCF7 breast; HT29 colon; CAKI-1 renal; SK-OV-3 ovarian; HCT-116 colon; SN12C renal; UACC-257 melanoma; HOP-62 NSCLC; UO-31 renal.
Common to all, as to experiment: NCI tumour cell line growth inhibition, 48 h

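Test compounds were applied to cells in 96-well plates for 48 hours at 5 doses. TGI: concentration producing complete growth inhibition.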

On to `COc1cc(CNC(=O)CCCCCCCC/C=C/Br)ccc1O`, for which the TGI with LOX IMVI melanoma, with SF-539 CNS, with KM12 colon, with SNB-75 CNS, in the assay with MCF7 breast and in the assay on HT29 colon was greater than 10 µM each time. The TGI in the assay with CAKI-1 renal, in the assay on SK-OV-3 ovarian, with HCT-116 colon, with SN12C renal, in the assay with UACC-257 melanoma and in the assay on HOP-62 NSCLC was greater than 10 µM each time. The compound also registered a TGI with UO-31 renal greater than 10 µM.
`COc1cc(OC)c(/C=N/N=C(\N)NO)c(OC)c1`: the TGI with LOX IMVI melanoma is greater than 100 µM; with SF-539 CNS it was greater than 100 µM; in the assay with KM12 colon, 96.4 µM; with SNB-75 CNS, 64.7 µM; with MCF7 breast, greater than 100 µM; in the assay on HT29 colon, greater than 100 µM. Further, the TGI in the assay with CAKI-1 renal, in the assay on SK-OV-3 ovarian, in the assay with HCT-116 colon, in the assay with SN12C renal, in the assay with UACC-257 melanoma and in the assay with HOP-62 NSCLC was greater than 100 µM throughout. This compound also had a TGI in the assay on UO-31 renal of 81.2 µM.
In the case of `CC1C(c2ccccc2O)c2cc3c(cc2OC1N1CCCC1)OCO3` (centres undefined), the TGI in the assay with LOX IMVI melanoma is 44.3 µM; with SF-539 CNS, 50.2 µM; in the assay on KM12 colon, greater than 100 µM; in the assay on SNB-75 CNS, 88 µM; with MCF7 breast, 67.4 µM; in the assay on HT29 colon, 30.8 µM. The TGI with CAKI-1 renal is greater than 100 µM; with SK-OV-3 ovarian it was greater than 100 µM; with HCT-116 colon, 43.1 µM; in the assay on SN12C renal, 35.8 µM; in the assay with UACC-257 melanoma, 92.5 µM; in the assay with HOP-62 NSCLC, 49.8 µM. For the same compound, the TGI in the assay with UO-31 renal is greater than 100 µM.
